In PubChem BioAssay (NCI) one finds TGI and GI50 data, which are given here for 14 compounds.

Values joined by “and” are separate entries in the source; they are usually repeats but may differ in a detail not shown here. Equal values may be shown once.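 Each compound was tested at five concentrations against cells in 96-well plates for 48 hours. The concentration for 50% growth inhibition is given as GI50. Definition used: TGI = concentration required for complete inhibition of growth.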

Among the test systems are U251 CNS; MDA-MB-231 breast; OVCAR-5 ovarian; UO-31 renal; T-47D breast; EKVX NSCLC; MCF7 breast; SW-620 colon; MALME-3M melanoma; RXF 393 renal.
Assay in all cases: NCI tumour cell line growth inhibition, 48 h

For `O=C(/C=C\c1ccc([N+](=O)[O-])cc1)c1ccccc(=O)c1O`, the TGI in the assay on U251 CNS is more than 100 µM; in the assay with MDA-MB-231 breast it was 17.1 µM; with OVCAR-5 ovarian, 9.92 µM; in the assay with UO-31 renal it was 3.3 µM; with T-47D breast it was 23.8 µM; in the assay on EKVX NSCLC it was 11.9 µM. The TGI in the assay with MCF7 breast was 2.64 µM; in the assay with SW-620 colon, more than 21.6 µM; in the assay on MALME-3M melanoma it was 3.08 µM.

Regarding `CCCCCCCCCCCCCCCCCCn1cc[n+](C)c1`, the GI50 is 0.451 µM in the assay with RXF 393 renal; 0.372 µM and 0.397 µM in the assay on U251 CNS; 1.08 µM in the assay with MDA-MB-231 breast; 0.605 µM in the assay on OVCAR-5 ovarian; 1.03 µM in the assay with UO-31 renal; 0.403 µM and 0.433 µM in the assay on T-47D breast. Moreover, the GI50 in the assay on MCF7 breast was 0.513 µM and 1 µM; in the assay with SW-620 colon, 0.624 µM. The TGI in the assay with RXF 393 renal is 1.54 µM; with U251 CNS, 1.51 µM; with MDA-MB-231 breast, 2.52 µM; in the assay with OVCAR-5 ovarian, 2 µM; in the assay on UO-31 renal, 2.41 µM; with T-47D breast it was 2.96 µM and 3.31 µM. Also, the TGI in the assay with MCF7 breast was 1.79 µM and 2.35 µM; in the assay on SW-620 colon, 1.96 µM.

As for `COc1ccc(-c2nc(-c3ccc(C)cc3)cn3ccnc23)cc1`, the GI50 was 2.41 µM in the assay with RXF 393 renal; 3.42 µM in the assay on U251 CNS; 4.24 µM with MDA-MB-231 breast; 28.9 µM with OVCAR-5 ovarian; 12 µM in the assay with UO-31 renal; more than 50 µM in the assay on T-47D breast. In addition, the GI50 in the assay on EKVX NSCLC is 4.38 µM; with MCF7 breast, 3.05 µM; with SW-620 colon, 2.8 µM. The TGI in the assay on RXF 393 renal is 18.5 µM; in the assay on U251 CNS, more than 50 µM; in the assay with MDA-MB-231 breast, 38.8 µM; with OVCAR-5 ovarian, more than 50 µM; in the assay with UO-31 renal, more than 50 µM; in the assay on T-47D breast, more than 50 µM. For the same compound, the TGI in the assay with EKVX NSCLC, with MCF7 breast and in the assay with SW-620 colon was more than 50 µM in each case.

With `COc1ccc(/C(COc2ccc3oc(-c4ccccc4)cc(=O)c3c2)=N\O)cc1`, the GI50 in the assay on RXF 393 renal was 47.4 µM; in the assay with U251 CNS, 0.13 µM; in the assay with MDA-MB-231 breast, 0.182 µM; in the assay with OVCAR-5 ovarian, 0.377 µM; in the assay on UO-31 renal, 1.6 µM; with T-47D breast, 2.41 µM. Also, the GI50 in the assay with EKVX NSCLC is 0.229 µM; in the assay on MCF7 breast, less than 0.005 µM; with SW-620 colon, 0.382 µM. For the same compound, the TGI is more than 50 µM with RXF 393 renal; 12.2 µM in the assay with U251 CNS; 9.17 µM with MDA-MB-231 breast; more than 25.5 µM in the assay on OVCAR-5 ovarian; more than 50 µM with UO-31 renal; more than 50 µM with T-47D breast. In addition, the TGI in the assay with EKVX NSCLC was 1.91 µM; in the assay with MCF7 breast, 11.6 µM; in the assay on SW-620 colon, more than 50 µM.

For `Cc1csc2[n+]1-c1ccccc1N(C(=O)Nc1ccccc1)C(C)C2` (stereo not drawn), the GI50 with RXF 393 renal was 50.8 µM; in the assay with U251 CNS, 69.4 µM; with MDA-MB-231 breast it was 18.6 µM; in the assay with OVCAR-5 ovarian, 28.6 µM; with UO-31 renal, more than 100 µM; in the assay on T-47D breast, more than 100 µM. Besides, the GI50 in the assay on EKVX NSCLC was more than 100 µM; with MCF7 breast it was 48.7 µM; in the assay on SW-620 colon it was 41 µM. Besides, the TGI in the assay with RXF 393 renal was more than 100 µM; with U251 CNS it was more than 100 µM; with MDA-MB-231 breast, 45.3 µM; in the assay on OVCAR-5 ovarian, 99.5 µM; with UO-31 renal it was more than 100 µM; with T-47D breast it was more than 100 µM. For the same compound, the TGI in the assay with EKVX NSCLC, in the assay on MCF7 breast and with SW-620 colon was more than 100 µM throughout.

Turning to `CCCCCCCCCCCCCC[N+](C)(C)CCCCCCCCCCCCCC`, the GI50 is 1.28 µM with RXF 393 renal, 2.92 µM in the assay with OVCAR-5 ovarian, 4.44 µM in the assay with UO-31 renal and 2.2 µM in the assay with T-47D breast. Further, the TGI in the assay on RXF 393 renal is 2.78 µM; in the assay on OVCAR-5 ovarian it was 9.91 µM; in the assay on UO-31 renal it was more than 100 µM; in the assay with T-47D breast, 7.73 µM.

Turning to `COc1ccc2c(c1)[nH]c(=O)c1c3cccc(F)c3cn21`, the GI50 was 0.0375 µM with RXF 393 renal; 0.0472 µM in the assay with U251 CNS; 0.283 µM in the assay with MDA-MB-231 breast; 0.508 µM with OVCAR-5 ovarian; 0.0596 µM in the assay on UO-31 renal; 42.1 µM with T-47D breast. Moreover, the GI50 is 1.27 µM in the assay with EKVX NSCLC, 0.22 µM with MCF7 breast and 0.0343 µM in the assay on SW-620 colon. The TGI was 34.1 µM in the assay on RXF 393 renal; 14.8 µM with U251 CNS; more than 100 µM in the assay with MDA-MB-231 breast; more than 100 µM with OVCAR-5 ovarian; more than 70.6 µM in the assay with UO-31 renal; more than 100 µM in the assay with T-47D breast. Also, the TGI with EKVX NSCLC is more than 100 µM; in the assay with MCF7 breast it was more than 94.6 µM; in the assay on SW-620 colon, 25.8 µM.

Turning to `NCCCC[C@@H]1NC(=O)[C@H](CC(=O)O)NC(=O)CNC(=O)[C@H](CCCN=C(N)N)NC(=O)[C@@H](N)CSSC[C@@H](C(=O)O)NC(=O)[C@H](CC(=O)O)NC(=O)[C@@H]2CCCN2C(=O)CNC1=O`, the GI50 in the assay on RXF 393 renal, with U251 CNS, with OVCAR-5 ovarian, with T-47D breast, in the assay on EKVX NSCLC and in the assay on MCF7 breast was more than 100 µM each time. In addition, the GI50 with SW-620 colon and with MALME-3M melanoma was more than 100 µM each time. Further, the TGI in the assay on RXF 393 renal, in the assay on U251 CNS, in the assay on OVCAR-5 ovarian, with T-47D breast, in the assay on EKVX NSCLC and with MCF7 breast was more than 100 µM each time. Further, the TGI with SW-620 colon and in the assay on MALME-3M melanoma was more than 100 µM throughout.

Take `COc1cc(/C=C/C(=O)/C=C/c2ccc(-n3ccnc3C)cc2)ccc1O`: the GI50 in the assay with RXF 393 renal is 1.66 µM; in the assay on U251 CNS it was 2.31 µM; in the assay with MDA-MB-231 breast, 2.87 µM; in the assay on OVCAR-5 ovarian, 14.9 µM; with UO-31 renal it was 1.51 µM; in the assay with T-47D breast, 3.12 µM. The results for the GI50 in the assay with EKVX NSCLC, in the assay with SW-620 colon and in the assay with MALME-3M melanoma were 21 µM, 2.23 µM and 4.63 µM, respectively. The TGI with RXF 393 renal was determined as 3.18 µM; with U251 CNS it was 6.4 µM; in the assay on MDA-MB-231 breast, 9.03 µM; with OVCAR-5 ovarian, 39.3 µM; in the assay with UO-31 renal, 3.15 µM; in the assay on T-47D breast, 15.1 µM. Moreover, the TGI in the assay on EKVX NSCLC is 99 µM; in the assay on SW-620 colon, 5.63 µM; with MALME-3M melanoma it was 30.5 µM.

On to `COc1ccc2c(c1)c(-c1nc(-c3c[nH]c4ccncc34)cs1)cn2C`, for which the GI50 with RXF 393 renal was 1.49 µM; with U251 CNS it was 1.87 µM; with MDA-MB-231 breast, 1.45 µM; with OVCAR-5 ovarian it was 1.64 µM; in the assay with UO-31 renal it was 1.58 µM; with EKVX NSCLC, 1.76 µM. The GI50 is 1.47 µM with MCF7 breast, 1.75 µM in the assay on SW-620 colon and 1.74 µM in the assay with MALME-3M melanoma. The TGI turned out to be 2.88 µM in the assay with RXF 393 renal; 3.3 µM in the assay on U251 CNS; 2.95 µM in the assay with MDA-MB-231 breast; 3.06 µM with OVCAR-5 ovarian; 2.97 µM in the assay with UO-31 renal; 3.4 µM in the assay on EKVX NSCLC. For the same compound, the values for the TGI in the assay with MCF7 breast, with SW-620 colon and in the assay with MALME-3M melanoma were 3.09 µM, 3.27 µM and 3.28 µM, respectively.

For the compound `CC1CC[P+](c2ccccc2)(c2ccccc2)c2c1ccc1ccccc21` (stereo not drawn), the TGI with RXF 393 renal is 43.5 µM; in the assay with U251 CNS, more than 100 µM; in the assay on MDA-MB-231 breast, more than 45 µM; with OVCAR-5 ovarian, more than 100 µM; with UO-31 renal it was more than 68.3 µM; in the assay on T-47D breast, more than 71.6 µM. Besides, the TGI in the assay with EKVX NSCLC, in the assay on MCF7 breast and with SW-620 colon was more than 100 µM in each case. In addition, the GI50 was 2.85 µM in the assay with U251 CNS, 8.98 µM in the assay on MDA-MB-231 breast, 92 µM with EKVX NSCLC and 5.95 µM in the assay with SW-620 colon.

Turning to `COC12C=C/C(=C(/C(=O)OCc3ccccn3)C(=O)CCCCCCCCC3(OC)C=C/C(=C(/C(=O)OCc4ccccn4)C(=O)CCCCCCCC1)O3)O2`, the GI50 in the assay on RXF 393 renal is 0.192 µM; with U251 CNS it was 0.386 µM; in the assay on MDA-MB-231 breast, 0.485 µM; with OVCAR-5 ovarian, 0.538 µM; with T-47D breast, 0.588 µM; in the assay with EKVX NSCLC, 0.614 µM. Further, the GI50 with SW-620 colon is 0.385 µM; with MALME-3M melanoma it was 0.325 µM. The TGI with RXF 393 renal is 0.357 µM; in the assay with U251 CNS, 1.52 µM; in the assay with MDA-MB-231 breast, more than 100 µM; in the assay on OVCAR-5 ovarian, 5.62 µM; with T-47D breast, 6.24 µM; in the assay with EKVX NSCLC, 3.72 µM. For the same compound, the TGI in the assay with SW-620 colon amounted to 2.09 µM; in the assay with MALME-3M melanoma it was 1.38 µM.

As for `CCOC(=O)c1cc2c(cc1Cl)SC(=Nc1ccccc1)N(S(=O)(=O)c1ccc(Cl)cc1)S2(=O)=O`, the GI50 in the assay on RXF 393 renal is 11.3 µM; in the assay with U251 CNS, 10.6 µM; in the assay on MDA-MB-231 breast, 13.2 µM; in the assay with OVCAR-5 ovarian, 19.4 µM; in the assay with UO-31 renal, 15.9 µM; in the assay on T-47D breast it was 3.84 µM. Further, the GI50 in the assay on EKVX NSCLC is 16.6 µM; in the assay with MCF7 breast, 4.38 µM; with SW-620 colon, 14.6 µM. In addition, the TGI with RXF 393 renal stood at 36.1 µM; in the assay on U251 CNS it was 25.9 µM; in the assay with MDA-MB-231 breast, 33.7 µM; in the assay on OVCAR-5 ovarian, 36.8 µM; in the assay on UO-31 renal, 33.3 µM; in the assay on T-47D breast it was 23.4 µM. Further, the TGI in the assay on EKVX NSCLC stood at 31.8 µM; in the assay on MCF7 breast, 15.9 µM; with SW-620 colon, 32.6 µM.

Consider `O=S(=O)(NNc1ccccc1)c1ccccc1`, for which the TGI in the assay with RXF 393 renal is 38.5 µM; in the assay with U251 CNS it was 33.9 µM; in the assay with MDA-MB-231 breast it was 17.5 µM; in the assay with OVCAR-5 ovarian it was more than 100 µM; in the assay with UO-31 renal, 25.7 µM; in the assay on T-47D breast it was 51.5 µM. Besides, the figures for the TGI with EKVX NSCLC, in the assay with MCF7 breast and in the assay on SW-620 colon were 31.9 µM, 28.8 µM and more than 100 µM, respectively.
